According to US20260092061A1, “COMPOUNDS FOR TARGETED PROTEIN DEGRADATION” (Amphista Therapeutics Limited, priority 2022, published 2026):

Experiments:
BRD9 [1] = biological target: T1, BRD9 (Homo sapiens, UniProt Q9H8M2); experiment: BRD9 degradation, HiBiT-BRD9 KI HEK293 (LgBiT) cells, NanoGlo Lytic Endpoint assay (Assay Protocol 1); type: cell-based; conditions: for Dmax: HEK293
T1 sequence (Q9H8M2 1-597): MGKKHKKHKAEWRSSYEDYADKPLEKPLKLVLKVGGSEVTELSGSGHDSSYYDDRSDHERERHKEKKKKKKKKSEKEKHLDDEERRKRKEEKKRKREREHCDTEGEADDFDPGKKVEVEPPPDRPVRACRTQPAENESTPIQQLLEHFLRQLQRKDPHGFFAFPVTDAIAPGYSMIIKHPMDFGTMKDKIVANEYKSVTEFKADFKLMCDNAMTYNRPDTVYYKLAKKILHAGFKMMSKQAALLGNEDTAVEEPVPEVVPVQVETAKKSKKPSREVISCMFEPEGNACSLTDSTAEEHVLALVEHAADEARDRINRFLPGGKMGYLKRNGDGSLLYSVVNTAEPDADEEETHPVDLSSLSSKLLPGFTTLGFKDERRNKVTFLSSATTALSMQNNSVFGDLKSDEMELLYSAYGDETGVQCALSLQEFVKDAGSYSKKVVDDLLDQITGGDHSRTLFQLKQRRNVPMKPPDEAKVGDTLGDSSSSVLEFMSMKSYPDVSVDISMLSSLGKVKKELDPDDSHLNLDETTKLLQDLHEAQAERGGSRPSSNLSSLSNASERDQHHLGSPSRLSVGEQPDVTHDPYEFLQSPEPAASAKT
Summary of the method: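 HiBiT-tagged BRD9 knock-in HEK293 (LgBiT) cells exposed to compounds for 6 h at 37 °C, 5% CO2. Residual BRD9 measured by HiBiT lytic luminescence. % BRD9 remaining normalised to DMSO-treated cells (high) and no-cell wells (low).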

BRD9 [2] = biological target: T1, BRD9; experiment: Degradation of BRD9 (IF), immunofluorescence in MV4-11 cells, 24 hours (Assay Protocol 2); type: cell-based; set-up: A suspension of MV4-11 cells (ATCC CRL-9591) was prepared; host or cells: MV4-11; conditions: BRD9 degradation, determined according to Assay Protocol 2
Summary of the method: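 MV4-11 cells treated with compound 24 h at 37° C., then fixed, permeabilised and immunostained for BRD9 (anti-BRD9 E4Q3F, Alexa 647 secondary, Hoechst counterstain). High-content imaging quantified nuclear BRD9 signal; % BRD9 remaining normalised to DMSO and 100 nM CFT-8634 controls.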

Compound: COc1cc(-c2cn(C)c(=O)c(C)c2C)cc(OC)c1CN1CCN(C(=O)/C(C#N)=C/c2cccc(Br)n2)CC1 [BRD9h, (E/Z)-3-(6-bromopyridin-2-yl)-2-(4-(2,6-dimethoxy-4-(1,4,5-trimethyl-6-oxo-1,6-dihydropyridin-3-yl)benzyl)piperazine-1-carbonyl)acrylonitrile]
- Dmax (BRD9 [1]; Table 4, BRD9 degradation, determined according to Assay Protocol 1, read-out: Dmax^1): > 70%
- Dmax (BRD9 [1]; Table 5, assay protocol 1, read-out: BRD9 Dmax (%)): > 75%
- DC50 (BRD9 [1]; Table 4, BRD9 degradation, determined according to Assay Protocol 1, read-out: DC50^1): < 25 nM
- DC50 (BRD9 [1]; Table 5, assay protocol 1, read-out: BRD9 DC50): < 1.25 nM
- Dmax (BRD9 [2]; MV4-11, Table 4, read-out: Dmax^2): > 70%
- DC50 (BRD9 [2]; Table 4, read-out: DC50^2): < 25 nM
